16 compounds from patent US20250206729A1, “DUAL RAF AND TUBULIN INHIBITORS AND METHODS OF USE THEREOF” (Deciphera Pharmaceuticals, LLC, priority 2023, published 2025) can be followed below.

Like-named read-outs stand apart in the source and are kept apart here.

Test [1] relates to MiaPaca-2 cells. As to the kind of experiment: MiaPaca-2 cell proliferation assay. The conditions noted are these: Homo sapiens, MIA PaCa-2. The test is classed as cell-based. Here is the method: Miapaca-2 cells (catalog #CRL-1420) are obtained from the American Type Culture Collect (ATTC, Manassas, VA). Briefly, cells were grown in DMEM supplemented with 10% characterized fetal bovine serum (Invitrogen, Carlsbad, CA), 2.5% New Zealand sourced horse serum and 1% Penicillin/Streptomycin/L-Glutamine at 37° C., 5% CO2, and 95% humidity. Cells are expanded until reaching 70-95% confluency at which point they are sub-cultured or harvested for assay use. A serial dilution of test compound is dispensed into a 384-well black clear bottom plate in triplicate. Seven hundred fifty cells are added per well in 50 μL complete growth medium in the 384-well plate. Plates are incubated for 67-72 h at 37° C., 5% CO2, and 95% humidity. At the end of the incubation, 10 μL of a 440 μM solution of resazurin (Sigma, St. Louis, MO) in PBS is added to each well of the plate and plates are incubated for an additional 5-6 h at 37° C., 5% CO2, and 95% humidity. Plates are read on a Synergy2 or equivalent reader (Biotek, Winooski VT) using an excitation of 540 nm and an emission of 600 nm. Data is analyzed using Prism software (GraphPad, San Diego, CA) to calculate IC50 values.

Test [2] relates to HCT-116 cells. As to the kind of experiment: HCT-116 cell proliferation assay. The class given is cell-based. The conditions noted are these: for IC50: Homo sapiens. Here is the method:
HCT-116 cells (catalog #CCL-247) are obtained from the American Type Culture Collect (ATCC, Manassas, VA). Briefly, cells are grown in McCoy's 5A supplemented with 10% characterized fetal bovine serum (Invitrogen, Carlsbad, CA) and 1% Penicillin/Streptomycin/L-Glutamine at 37° C., 5% CO2, and 95% humidity. Cells are expanded until reaching 70-95% confluency at which point they are sub-cultured or harvested for assay use. A serial dilution of test compound is dispensed into a 384-well black clear bottom plate in triplicate. 375 cells are added per well in 50 μL complete growth medium in the 384-well plate. Plates are incubated for 67 to 72 h at 37° C., 5% CO2, and 95% humidity. At the end of the incubation, 40 μL of a […] solution of resazurin (Sigma, St. Louis, MO) in PBS is added to each well of the plate and plates are incubated for an additional 4 to 5 h at 37° C., 5% CO2, and 95% humidity. Plates are read on a Synergy2 or equivalent reader (Biotek, Winooski, VT) using an excitation of 540 nm and an emission of 600 nm. Data is analyzed using Prism software (Graphpad, San Diego, CA) to calculate IC50 values.

The subject of test [3] is HPAF-II cells. Briefly: HPAF-II cell proliferation assay. The class given is cell-based. The note with it: Homo sapiens. Here is the method: (§1) HPAF-II cells (catalog #CRL-1997) are obtained from the American Type Culture Collect (ATCC, Manassas, VA). Briefly, cells are grown in Minimum Essential Media supplemented with 10% characterized fetal bovine serum (Invitrogen, Carlsbad, CA) and 1% Penicillin/Streptomycin/L-Glutamine at 37° C., 5% CO2, and 95% humidity. Cells are expanded until reaching 70-95% confluency at which point they are sub-cultured or harvested for assay use. A serial dilution of test compound is dispensed into a 384-well black clear bottom plate in triplicate. 750 cells are added per well in 50 μL complete growth medium in the 384-well plate. Plates are incubated for 115 to 120 h at 37° C., 5% CO2, and 95% humidity. At the end of the incubation, 40 μL of a […] solution of resazurin (Sigma, St. Louis, MO) in PBS is added to each well of the plate and plates are incubated for an additional 18 to 24 h at 37° C., 5% CO2, and 95% humidity. Plates are read on a Synergy2 or equivalent reader (Biotek, Winooski, VT) using an excitation of 540 nm and an emission of 600 nm. Data is analyzed using Prism software (Graphpad, San Diego, CA) to calculate IC50 values.

For test [4], the target named is T1, B-Raf kinase (SEQ ID NO: 1) (Homo sapiens, UniProt P15056).
T1 construct: GST (N); purchased Sigma
T1 sequence (P15056 416-766): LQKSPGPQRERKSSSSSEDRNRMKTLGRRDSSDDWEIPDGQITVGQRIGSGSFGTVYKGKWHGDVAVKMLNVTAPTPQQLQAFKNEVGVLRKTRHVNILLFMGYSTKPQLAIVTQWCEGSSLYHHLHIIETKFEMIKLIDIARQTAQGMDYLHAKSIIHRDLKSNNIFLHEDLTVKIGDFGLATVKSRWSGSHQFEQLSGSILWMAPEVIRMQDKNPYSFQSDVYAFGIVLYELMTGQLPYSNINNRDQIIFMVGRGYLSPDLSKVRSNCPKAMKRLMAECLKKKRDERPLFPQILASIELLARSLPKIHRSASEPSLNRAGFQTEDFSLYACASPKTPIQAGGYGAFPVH
Briefly: Biochemical assay for B-Raf (coupled pyruvate kinase/lactate dehydrogenase). The conditions noted are these: 1 mM ATP; read-out: BRAF (inhibition of biochemical activity, IC50).

The target in test [5] is T2, C-Raf kinase (SEQ ID NO: 2) (Homo sapiens, UniProt P04049, Y340D/Y341D).
T2 construct: C-Raf residues 306-end; Y340D, Y341D with N-; GST (N); purchased Sigma
T2 sequence (P04049 307-648 Y340D/Y341D): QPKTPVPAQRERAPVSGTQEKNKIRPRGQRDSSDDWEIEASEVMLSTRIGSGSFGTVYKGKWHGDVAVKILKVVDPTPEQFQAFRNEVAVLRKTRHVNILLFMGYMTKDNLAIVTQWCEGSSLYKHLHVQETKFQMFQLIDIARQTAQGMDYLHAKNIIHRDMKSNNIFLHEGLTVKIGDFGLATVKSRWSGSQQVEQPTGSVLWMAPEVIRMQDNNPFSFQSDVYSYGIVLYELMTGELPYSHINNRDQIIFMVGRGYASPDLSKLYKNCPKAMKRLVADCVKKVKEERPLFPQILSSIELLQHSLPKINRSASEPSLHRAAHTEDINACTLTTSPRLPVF
As to the kind of experiment: Biochemical assay for C-Raf (coupled pyruvate kinase/lactate dehydrogenase). The note with it: 1 mM ATP; read-out: CRAF (inhibition of biochemical activity, IC50).

Test [6] concerns Pa16c cells. As to the kind of experiment: Pa16c cell proliferation assay. The note with it: 67 to 72 h incubation, resazurin; read-out: Pa16c (inhibition of cell proliferation, IC50). The class given is cell-based. Here is the method: as §1, with “Pa16c” for “HPAF-II”, “cells” for “cells (catalog #CRL-1997)”, “Dr. Channing Der, University of North Carolina at Chapel Hill.” for “the American Type Culture Collect (ATCC, Manassas, VA).”, “Dulbecco's Modified Eagle Medium” for “Minimum Essential Media”, “67” for “115”, “72” for “120”

Where [7] appears, read: Table 4, mutant KRAS pancreatic cancer cell line, anti-proliferative, read-out: MiaPaca-2.
Where [8] appears, read: Table 4, mutant KRAS colorectal cancer cell line, anti-proliferative, read-out: HCT-116.
The mark [9] stands for this setting: 67-72 h incubation, resazurin, read-out: MiaPaca-2 (inhibition of cell proliferation, IC50).
[10] abbreviates: HCT-116, 67 to 72 h incubation, resazurin, read-out: HCT-116 (inhibition of cell proliferation, IC50).
The mark [11] stands for this setting: HPAF-II, 115 to 120 h incubation, resazurin, read-out: HPAF-II (inhibition of cell proliferation, IC50).

Consider `CC(C)(C)c1nc(-c2cccc(NS(=O)(=O)c3c(F)cccc3F)c2F)c(-c2ccnc(N)n2)s1` [Dabrafenib, dabrafenib, reference compound], for which the IC50 fell in the range of 1000 to 10000 nM in test [1] (setting [7]); 1000 to 10000 nM in test [2] (setting [8]); 1000 to 10000 nM in test [3] (Table 4, mutant KRAS pancreatic cancer cell line, anti-proliferative, read-out: HPAF-II).
Turning to `Cc1ccc(NC(=O)c2cc(C(F)(F)F)cnn2)cc1-c1ccnc(N2CCOCC2)c1` [Example 1, N-(4-methyl-3-(2-morpholinopyridin-4-yl)phenyl)-5-(trifluoromethyl)pyridazine-3-carboxamide], the IC50 in test [4] was 100 to 500 nM; in test [5], 100 to 500 nM; in test [1] (setting [9]), under 100 nM; in test [2] (setting [10]), 100 to 500 nM; in test [3] (setting [11]), 100 to 500 nM; in test [6], 100 to 500 nM.
In the case of `Cc1ccc(NC(=O)c2cc(C3CC3)cnn2)cc1-c1ccnc(N2CCOCC2)c1` [Example 2, 5-cyclopropyl-N-(4-methyl-3-(2-morpholinopyridin-4-yl)phenyl)pyridazine-3-carboxamide], the IC50 in test [4] was 100 to 500 nM; in test [5] it was under 100 nM; in test [1] (setting [9]), 100 to 500 nM; in test [2] (setting [10]), 100 to 500 nM; in test [3] (setting [11]), 100 to 500 nM; in test [6], 1000 to 10000 nM.
Consider `Cc1ccc(NC(=O)c2cc(C(F)(F)F)cnn2)cc1-c1cc(C2CC2)nc(N2CCOCC2)c1` [Example 3], for which the IC50 in test [4] is 100 to 500 nM; in test [5] it was 100 to 500 nM; in test [1] (setting [9]), under 100 nM; in test [2] (setting [10]) it was 100 to 500 nM; in test [3] (setting [11]) it was 100 to 500 nM; in test [6], under 100 nM.
For `Cc1cc(-c2cc(NC(=O)c3cc(C(F)(F)F)cnn3)ccc2C)cc(N2CCOCC2)n1` [Example 4], the IC50 is under 100 nM in test [4]; under 100 nM in test [5]; 100 to 500 nM in test [1] (setting [9]); 100 to 500 nM in test [2] (setting [10]); under 100 nM in test [3] (setting [11]); under 100 nM in test [6].
For `Cc1ccc(NC(=O)c2ccc(C(F)(F)F)nn2)cc1-c1cc(N[C@H](C)CO)nc(N2CCOCC2)c1` [Example 5], the IC50 in test [4] is 1000 to 10000 nM; in test [5], 500 to 1000 nM; in test [1] (setting [9]), 100 to 500 nM; in test [2] (setting [10]), 1000 to 10000 nM; in test [3] (setting [11]) it was 1000 to 10000 nM; in test [6], 1000 to 10000 nM.
`Cc1ccc(NC(=O)c2cc(C(F)(F)F)cnn2)cc1-c1cc(N[C@H](C)CO)nc(N2CC3CC(C2)O3)c1` [Example 7]: the IC50 in test [4] was 100 to 500 nM; in test [5], 100 to 500 nM; in test [1] (setting [9]) it was under 100 nM; in test [3] (setting [11]), under 100 nM; in test [6], 500 to 1000 nM. In test [2] (67 to 72 h incubation, resazurin), the “HCT-116 (inhibition of cell proliferation, IC50)” value is “++ ++”.
For the compound `Cc1ccc(NC(=O)c2cc(C(F)(F)F)cnn2)cc1-c1ccnc(N2CCOC(C(F)(F)F)C2)c1` (stereo not shown) [Example 8], the IC50 in test [4] is 1000 to 10000 nM; in test [5] it was 1000 to 10000 nM; in test [1] (setting [9]), 100 to 500 nM; in test [2] (setting [10]), 100 to 500 nM; in test [3] (setting [11]), 500 to 1000 nM; in test [6], 500 to 1000 nM.
Turning to `Cc1ccc(NC(=O)c2cncc(Cl)n2)cc1-c1cc(N[C@H](C)CO)nc(N2CCOCC2)c1` [Example 9], the IC50 in test [4] lay in the range of 100 to 500 nM; in test [5] it was 100 to 500 nM; in test [1] (setting [9]) it was 1000 to 10000 nM; in test [2] (setting [10]), 1000 to 10000 nM; in test [3] (setting [11]), 500 to 1000 nM; in test [6] it was 1000 to 10000 nM.
As for `Cc1ccc(NC(=O)c2cc(C(F)(F)F)cnn2)cc1-c1nccc(N2CCOCC2)n1` [Example 10], the IC50 in test [4], in test [5], in test [1] (setting [9]), in test [2] (setting [10]), in test [3] (setting [11]) and in test [6] was 1000 to 10000 nM in each case.
In the case of `Cc1ccc(NC(=O)c2cnc(C(F)(F)F)nc2)cc1-c1cc(OCCO)nc(N2CCOCC2)c1` [Example 11], the IC50 in test [4] lay in the range of 1000 to 10000 nM; in test [5], 500 to 1000 nM; in test [1] (setting [9]), 100 to 500 nM; in test [2] (setting [10]), 100 to 500 nM; in test [3] (setting [11]), 100 to 500 nM; in test [6] it was 500 to 1000 nM.
Consider `Cc1ccc(NC(=O)c2cnc(C(F)(F)F)nc2)cc1-c1cc(N[C@H](C)CO)nc(N2CCOCC2)c1` [Example 12], for which the IC50 in test [4] lay in the range of 500 to 1000 nM; in test [5], 100 to 500 nM; in test [1] (setting [9]), 500 to 1000 nM; in test [2] (setting [10]) it was 1000 to 10000 nM; in test [3] (setting [11]), 1000 to 10000 nM; in test [6] it was 1000 to 10000 nM.
With `Cc1ccc(NC(=O)c2cncc(C(C)C)c2)cc1-c1cc(N[C@H](C)CO)nc(N2CCOCC2)c1` [Example 13], the IC50 was under 100 nM in test [4]; under 100 nM in test [5]; 500 to 1000 nM in test [1] (setting [9]); 100 to 500 nM in test [2] (setting [10]); 500 to 1000 nM in test [3] (setting [11]); 1000 to 10000 nM in test [6].
`Cc1ccc(NC(=O)c2cc(Cl)cnn2)cc1-c1cc(N[C@H](C)CO)nc(N2CCOCC2)c1` [Example 15]: the IC50 in test [4] was 100 to 500 nM; in test [5], under 100 nM; in test [1] (setting [9]), under 100 nM; in test [2] (setting [10]), under 100 nM; in test [3] (setting [11]), 100 to 500 nM; in test [6], 100 to 500 nM.
In the case of `Cc1ccc(NC(=O)c2cc(C(F)(F)F)cnn2)cc1-c1ccnc(N2C[C@@H](C)O[C@@H](C)C2)c1` [Example 84], the IC50 in test [4], in test [5], in test [1] (setting [9]), in test [2] (setting [10]) and in test [3] (setting [11]) was 1000 to 10000 nM each time.
For `CCCS(=O)(=O)Nc1ccc(F)c(C(=O)c2c[nH]c3ncc(-c4ccc(Cl)cc4)cc23)c1F` [Vemurafenib, vemurafenib, reference compound], the IC50 in test [1] (setting [7]) and in test [2] (setting [8]) was 1000 to 10000 nM in each case.
